The structures appear in SMILES notation.

What all share (assay type): functional
Assay [1] has as its system Saccharomyces cerevisiae. The assay can be described thus: (§1) MMV: Growth assays were conducted using the prototrophic S. cerevisiae strain JHY222. Each MMV compound (0.1 mM) was tested in rich media containing dextrose as a carbon source (Yeast Extract, Peptone, Dextrose; YPD). The growth rate in the presence of each MMV compound was calculated as follows: (i) the first 10 OD readings were averaged and subtracted from all OD readings of the corresponding curve to set the baseline of the growth curve to zero, and (ii) the area under the curve (AUC) was then calculated as the sum of all OD readings. […] A relative growth value was calculated as follows: AUC(DRUG) - AUC(DMSO)/AUC(DMSO); where AUC(DMSO) represents growth measured in a DMSO control well that was on the same microtiter plate of the drug-treated culture.

The test system of assay [2] is Saccharomyces cerevisiae. The assay is described as §1, with “minimal” for “rich”, “Nitrogen Base,” for “Extract, Peptone,”, “YNBD).” for “YPD).”.
Assay [3] concerns Saccharomyces cerevisiae. Described as §1, with “minimal” for “rich”, “ethanol and glycerol” for “dextrose”, “as” for “as a”, “sources” for “source”, “Nitrogen Base, Ethanol, Glycerol; YNBEG).” for “Extract, Peptone, Dextrose; YPD).”.

Regarding `CCOc1ccccc1CN1CCc2nc3cc(C(C)(C)C)nn3c(O)c2C1`, the “Relative Growth” value is given as -0.6117 with Saccharomyces cerevisiae [1], -0.2912 with Saccharomyces cerevisiae [2] and -0.4424 in the assay on Saccharomyces cerevisiae [3].
For `Cc1cc(NC(=O)c2cccc(C(F)(F)F)c2)n(-c2nc(-c3ccc4c(c3)OCO4)cs2)n1`, the figures for the “Relative Growth” value in the assay with Saccharomyces cerevisiae [1], in the assay with Saccharomyces cerevisiae [2] and with Saccharomyces cerevisiae [3] were -0.007, -0.0865 and -0.0763, respectively.
For `CC(C)(C)CC(C)(C)NCC(O)COc1ccc(Cl)cc1Cl` (stereo not given), in that order: -0.1373, 0.0104 and -0.1363.
With `O=C(Nc1ccc(Br)cc1)Nc1cccc(Cl)c1`, the “Relative Growth” value with Saccharomyces cerevisiae [1] is -1.0018; in the assay with Saccharomyces cerevisiae [2] it was -0.1739; in the assay with Saccharomyces cerevisiae [3] it was -0.1301.
With `O=C(NC1CCN(Cc2ccccc2)CC1)c1cc(-c2ccncc2)nc2ccc(Cl)cc12`, the entries for the “Relative Growth” value in the assay on Saccharomyces cerevisiae [1], with Saccharomyces cerevisiae [2] and with Saccharomyces cerevisiae [3] were -0.0217, 0.1716 and -0.2602, respectively.
For `COc1ccc2nc(C)cc(Nc3cccc(O)c3)c2c1.Cl`, in that order: -0.0539, 0.0539 and 0.0008.
Consider `COc1cc2cc(C(=O)Nc3ccccc3)c(N)nc2cc1OC`, for which the entries for the “Relative Growth” value in the assay with Saccharomyces cerevisiae [1], with Saccharomyces cerevisiae [2] and with Saccharomyces cerevisiae [3] were -1.0109, -0.0986 and 0.0392, respectively.
`COc1ccc2nc(N)nc(C)c2c1`: the figures for the “Relative Growth” value in the assay on Saccharomyces cerevisiae [1], in the assay with Saccharomyces cerevisiae [2] and with Saccharomyces cerevisiae [3] were -0.0479, 0.0302 and -0.0106, respectively.
As for `CCC(=O)Nc1nnc(Cc2ccc(OC)c(OC)c2)s1`, the “Relative Growth” value in the assay on Saccharomyces cerevisiae [1] is -0.0143; in the assay on Saccharomyces cerevisiae [2], -0.019; in the assay with Saccharomyces cerevisiae [3], -0.1225.
For the compound `CN1CCN(c2c3c(c(C#N)c4nc5ccccc5n24)CCC3)CC1`, the figures for the “Relative Growth” value in the assay on Saccharomyces cerevisiae [1], in the assay on Saccharomyces cerevisiae [2] and with Saccharomyces cerevisiae [3] were -0.0644, 0.2469 and -0.4878, respectively.
The like results for `CCN(CC)CCNc1ncnc2c1[nH]c1ccc(Br)cc12` were, in that order, -0.0425, 0.101 and 0.0355.
The like results for `CCOc1cc2c(cc1OCC)C(c1cc(C)c(O)c(C)c1)NCC2.Cl` (stereo not given) were, in that order, -0.1843, -0.1636 and -0.7495.
In the case of `CC1CC(C)CN(C(=O)c2ccc(Cl)cc2Cl)C1` (stereo not given), the “Relative Growth” value in the assay on Saccharomyces cerevisiae [1] is 0.0159; in the assay on Saccharomyces cerevisiae [2] it was -0.0098; with Saccharomyces cerevisiae [3], -0.0083.
For `O=C(NCc1ccco1)C1CCN(S(=O)(=O)c2ccc(Br)cc2)CC1`, in that order: -0.1145, -0.0814 and -0.2359.
Regarding `Clc1ccc2[nH]c3c(NCCCN4CCOCC4)ncnc3c2c1`, the “Relative Growth” value was 0.0234 with Saccharomyces cerevisiae [1], -0.0328 in the assay with Saccharomyces cerevisiae [2] and -0.0516 with Saccharomyces cerevisiae [3].
The like results for `Cc1cc(N2CCN(C3CCCC3)CC2)n2c(nc3ccccc32)c1C#N` were, in that order, -0.0263, 0.1152 and -0.0829.
For `O=c1c2c([nH]c3ccccc13)CCCC2`, the “Relative Growth” value in the assay on Saccharomyces cerevisiae [1] is on record as -0.0433; with Saccharomyces cerevisiae [2], -0.018; with Saccharomyces cerevisiae [3], -0.326.
`CCCCOc1ccc(C(=O)Nc2cc(C)on2)cc1`: the “Relative Growth” value in the assay with Saccharomyces cerevisiae [1] is listed as -0.0346; with Saccharomyces cerevisiae [2] it was -0.0653; with Saccharomyces cerevisiae [3] it was -0.1988.
For `CCc1ccc(Nc2cc(C)nc3nc(C)nn23)cc1`, in that order: 0.0328, -0.1477 and -0.0737.
For `CCCCN(CCCC)S(=O)(=O)c1ccc(NC(=O)c2ccco2)cc1`, in that order: -0.9715, -0.9663 and -0.9939.

Values taken from ChEMBL document CHEMBL3301546, “MMV Malaria Box yeast growth screening”.
